From PMC8748404 (Angewandte Chemie (International ed. in English), 2021) come the findings set out here.

Each structure is given as a SMILES string. pIC50, pKi: −log10 of the molar value.

As a reminder, the pKi is the Ki on a negative log10 scale, so that one unit is a factor of ten. Lower therefore signals a large Ki. For orientation: pIC50 means −log10 of the IC50, conventionally taken in molar units.

Test [1] has as its system PB1-BD2, PB1-BD4, PB1-BD5, BRD7 and BRD9. Description: concurrent screening against five bromodomain proteins. The test is classed as binding. The note with it: five bromodomain proteins screened concurrently.
A further test has as its system BRD7/9. As to the kind of experiment: concurrent DNA-based displacement screening, DNA-bromosporine probe. The class given is binding. Conditions: screen of 1000 compounds, TargetMol Bioactive Compound Library.
The target of a further test is HaloTag-eDHFR (Escherichia coli, UniProt P0ABQ4). Description: DNA-based ligand displacement screen of LOPAC library with DNA-linked TMP probe. The class given is binding, E. coli. The note with it: LOPAC1280 screen against HaloTag-eDHFR.
Sequence of HaloTag-eDHFR (P0ABQ4 whole entry): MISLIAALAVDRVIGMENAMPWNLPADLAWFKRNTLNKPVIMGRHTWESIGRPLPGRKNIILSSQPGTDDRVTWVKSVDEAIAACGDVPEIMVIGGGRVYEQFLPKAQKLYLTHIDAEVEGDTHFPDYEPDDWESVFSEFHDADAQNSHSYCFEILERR
The target in test [2] is E. coli dihydrofolate reductase (eDHFR) (Escherichia coli, UniProt P0ABQ4). Description: inhibition assays of eDHFR. The note with it: eDHFR inhibition assay. The test is classed as biochemical.
Sequence of E. coli dihydrofolate reductase (eDHFR) (P0ABQ4 whole entry): as above
Another test concerns the target eDHFR (Escherichia coli, UniProt P0ABQ4). Description: FP assay, displacement of fluorescein-labeled methotrexate. The test is classed as binding, E. coli. Conditions: displacement of fluorescein-labeled MTX from eDHFR.
For the next test, the target named is T1, human DHFR (Homo sapiens, UniProt P00374).
T1 sequence (P00374 1-187): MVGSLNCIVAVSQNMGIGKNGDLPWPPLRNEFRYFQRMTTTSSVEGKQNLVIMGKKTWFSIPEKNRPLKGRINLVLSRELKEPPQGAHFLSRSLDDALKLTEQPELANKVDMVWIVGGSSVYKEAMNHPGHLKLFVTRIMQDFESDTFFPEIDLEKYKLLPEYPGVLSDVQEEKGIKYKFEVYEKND
As to the kind of experiment: inhibition of human DHFR. The test is classed as biochemical.

The target in a further test is PB1-BD2/4/5. As to the kind of experiment: DNA-based ligand displacement assay, IC50 determination of hit compounds. The test is classed as binding.

Sequence of eDHFR (P0ABQ4 whole entry): as the sequence (P0ABQ4 whole entry) above

As to `CN1C(=O)c2sccc2N(C)c2nc(Nc3ccc(S(N)(=O)=O)cc3)ncc21` [XMU-MP-1], the “selectivity in concurrent screen” value in test [1] is “selectivity towards BRD7/9 over PB1-BD2/4/5”. Further, the “displacement of DNA-bromosporine probe” value with BRD7/9 is recorded as “significantly displaced”.

With `CN(CCOc1ccc(C[C@H](Nc2ccccc2C(=O)c2ccccc2)C(=O)O)cc1)c1ccccn1` [GW1929], the “recovery of DNA-linked probe” value on HaloTag-eDHFR was “low recovery”. In test [2], this compound gave a pKi of 6.39. Also, at eDHFR, the negative-log IC50 (pIC50) was 5.10. Besides, the “inhibition of human DHFR” value on human DHFR is listed as “modest inhibition”.

As to `Cc1cc(C)c(Nc2ccnc(Nc3ccc(C#N)cc3)n2)c(C)c1` [dapivirine], in test [1], the “selectivity in concurrent screen” value is “selectivity for PB1-BD4”. Besides, the “binding to respective bromodomains (IC50 determination)” value at PB1-BD2/4/5 was “potent binding”.
